Earlier results as cited in patent US20230111190A1, “ORAL COMPOSITIONS WITH IMPROVED BIOAVAILABILITY AND METHODS OF MAKING THE SAME” (Nulixir Inc., priority 2021, published 2023).

Legend:
[1] = n-octanol and water; categorization at pH = 7 unless stated otherwise
[2] = one study estimated
[3] = dependence on water content
[4] = in vivo

Compound	logP [1]	other results
COc1cc2c(c(OC)c1OC)-c1c(cc3c(c1OC)OCO3)CC(C)C(C)C2 (single isomer, unassigned; (-)) [(-)-schisandrin B]	~4	
COc1cc(/C=C/c2ccccc2)oc(=O)c1 [5,6-dehydrokawain]	~2.9	
COC1=CC(=O)OC(/C=C/c2ccc(OC)cc2)C1 (centres unmarked) [5,6-dihydroyangonin]	~2.5	
N[C@@H](Cc1c[nH]c2ccc(O)cc12)C(=O)O [5-HTP, 5-hydroxytryptophan]	~-2	
CC1=C(CO)C(=O)O[C@@H]([C@@H](C)[C@H]2CC[C@H]3[C@@H]4C[C@H](Cl)[C@]5(O)[C@@H](O)C=CC(=O)[C@]5(C)[C@H]4CC[C@]23C)C1 [6a-chloro-5b-hydroxywithaferin A]	~3.2	
COC1=CC(=O)O[C@@H](CCc2ccc3c(c2)OCO3)C1 [7,8-dihydromethysticin]	~2.2	
COc1ccc(CCc2cc(OC)cc(=O)o2)cc1 [7,8-dihydroyangonin]	~2.9	
COc1cc(/C=C\c2ccc(OC)c(O)c2)oc(=O)c1 [11-hydroxyyangonin]	~2.2	
COc1cc2c(c(OC)c1OC)-c1c(cc(OC)c(OC)c1OC)C[C@](C)(O)[C@@H](C)C2 [(+)-schisandrin]	~5	
COc1cc2c(c(OC)c1OC)-c1c(cc(OC)c(OC)c1OC)C[C@H](C)[C@H](C)C2 [(-)-schisandrin A]	~3.6	
O=C(/C=C/c1ccccc1)N1CCCC1 [(E)-1-cinnamoylpyrrolidine]	~2.2	
O=CC=Cc1ccccc1 [Cinnamaldehyde]		antifungal inhibitory activity (many strains of fungi): strong inhibitory activity
NCCCC(=O)O [GABA, gamma-aminobutyric acid]	~-3	
N[C@@H](Cc1ccccc1)C(=O)O [L-phenylalanine]	~-1.38	
CCNC(=O)CC[C@H](N)C(=O)O [L-theanine]	~-3	
O=C(O)c1cc(C(=O)O)c2c(n1)C(=O)C(=O)c1cc(C(=O)O)[nH]c1-2 [PQQ, pyrroloquinoline quinone]	~0.4	
CC(/C=C/C=C(\C)C(=O)O[C@@H]1O[C@H](CO[C@@H]2O[C@H](CO)[C@@H](O)[C@H](O)[C@H]2O)[C@@H](O)[C@H](O)[C@H]1O)=C\C=C\C=C(C)\C=C\C=C(/C)C(=O)O[C@@H]1O[C@H](CO[C@@H]2O[C@H](CO)[C@@H](O)[C@H](O)[C@H]2O)[C@@H](O)[C@H](O)[C@H]1O [alpha-crocin]	~-1.5	
CC(C)=C[C@@H]1CO[C@]23C[C@]4(CO2)[C@H](CC[C@@H]2[C@@]5(C)CC[C@H](O[C@@H]6OC[C@H](O)[C@H](O[C@@H]7O[C@H](CO)[C@@H](O)[C@H](O)[C@H]7O)[C@H]6O[C@@H]6O[C@@H](CO)[C@H](O)[C@H]6O)C(C)(C)[C@@H]5CC[C@]24C)[C@H]3[C@@]1(C)O [bacopasaponin C]	~2	
CC(C)=C[C@H]1C[C@](C)(O)[C@@H]2[C@H]3CC[C@@H]4[C@@]5(C)CC[C@H](O[C@@H]6OC[C@H](O)[C@H](O[C@@H]7O[C@H](CO)[C@@H](O)[C@H](O)[C@H]7O)[C@H]6O[C@@H]6O[C@@H](CO)[C@H](O)[C@H]6O)C(C)(C)[C@@H]5CC[C@@]4(C)[C@@]34CO[C@@]2(C4)O1 [bacopaside X]	~2.2	
CC(C)=C[C@H]1C[C@](C)(O)[C@H]2[C@H]3CC[C@@H]4[C@@]5(C)CC[C@H](O[C@@H]6O[C@H](CO)[C@@H](O)[C@H](O[C@@H]7O[C@H](CO)[C@@H](O)[C@H](O)[C@H]7O)[C@H]6O[C@@H]6O[C@@H](CO)[C@H](O)[C@H]6O)C(C)(C)[C@@H]5CC[C@@]4(C)[C@@]34CO[C@@]2(C4)O1 [bacoside A3]	~2.1	
COc1ccc2cc3[n+](cc2c1OC)CCc1cc2c(cc1-3)OCO2 [berberine]		affected by first-pass digestion [2]: 43%; bioavailability lost to hepatic metabolism [2]: minimal amount; not absorbed and eliminated via feces [2]: 56%; solubility in ethanol [3]: decreases rapidly with water content
CC(C)=CCC[C@](C)(O[C@@H]1O[C@H](CO[C@@H]2O[C@H](CO)[C@@H](O)[C@H](O)[C@H]2O)[C@@H](O)[C@H](O)[C@H]1O)[C@H]1CC[C@]2(C)[C@@H]1[C@H](O)C[C@@H]1[C@@]3(C)CC[C@H](O[C@@H]4O[C@H](CO)[C@@H](O)[C@H](O)[C@H]4O[C@@H]4O[C@H](CO)[C@@H](O)[C@H](O)[C@H]4O)C(C)(C)[C@@H]3CC[C@]12C [ginsenoside rb1]	~-1	

Compound	logP [1]	other results
CC(C)=CCC[C@](C)(O[C@@H]1O[C@H](CO)[C@@H](O)[C@H](O)[C@H]1O)[C@H]1CC[C@]2(C)[C@@H]1[C@H](O)C[C@@H]1[C@@]3(C)CC[C@H](O)C(C)(C)[C@@H]3[C@@H](O[C@@H]3O[C@H](CO)[C@@H](O)[C@H](O)[C@H]3O)C[C@]12C [ginsenoside rg1]	~0.8	
COc1cc(O)c2c(=O)c(OC)c(-c3ccc(O)cc3)oc2c1 [kumatakenin]	~2.5	
COc1ccc(C23C=CC(O)CC2N(C)CC3)cc1OC (centres unmarked) [mesembrenol]	~2.4	
COc1ccc([C@@]23C=CC(=O)C[C@@H]2N(C)CC3)cc1OC [mesembrenone]	~1.3	
COc1ccc([C@@]23CCC(=O)C[C@@H]2N(C)CC3)cc1OC [mesembrine]	~1.5	
COc1nc2c(c(=O)n1C)n(C)c(=O)n2C [methylliberine]	~-0.083	
CCCCCCCC/C=C\CCCCCCCC(=O)O [oleic acid]		absorbed via the lymphatic system [4]: 85%; absorbed via the portal vein [4]: 15%
CC(=O)OC1C=CC(=O)N(C(=O)CCc2ccccc2)C1 (centres unmarked) [pipermethystine]	~1.8	
COc1cc([C@H]2Oc3cc(O)c4c(=O)c(O)c(-c5ccc(O)cc5)oc4c3O[C@@H]2CO)ccc1O [rhodiolin]	~2	
COc1cc2c(c(OC)c1OC)-c1c(cc(OC)c(OC)c1OC)C[C@](C)(O)[C@@H](C)C2 [schisandrol A]	~3.4	
N#C[C@@]1(O[C@@H]2O[C@H](CO)[C@@H](O)[C@H](O)[C@H]2O)C=C[C@@H](O)C1 [tetraphyllin B]	~-2.5	
Cn1c(=O)c2c(n(C)c1=O)n(C)c(=O)n2C [theacrine]	~-1.06	
Cn1cnc2c1c(=O)[nH]c(=O)n2C [theobromine]	~-0.78	
COc1ccc(/C=C/c2cc(OC)cc(=O)o2)cc1 [yangonin]	~2.8	
(-)-schisandrin C	~3.5	
(R)-kawain	~2.7	
bacopaside B	~2.8	
hericerin	~6.4	
herinacine A	~2.5	
schisandroside C	~1.6	
tortuosomine	~3	
